# Legend:
# Test in all cases: Test C postemergence, plant response rating
# Assay type in all cases: in vivo
# [1] = test system: waterhemp (common waterhemp, Amaranthus rudis); conditions: for Waterhemp plant response rating: scale 0 to 100 (0 no effect, 100 complete control)
# Source text: (§1) Seeds of plant species selected from blackgrass (Alopecurus myosuroides), ryegrass, Italian (Italian ryegrass, Lolium multiflorum), wheat (winter wheat, Triticum aestivum), galium (catchweed bedstraw, Galium aparine), corn (Zea mays), crabgrass, large (large crabgrass, Digitaria sanguinalis), foxtail, giant (giant foxtail, Setaria faberii), johnsongrass (Sorghum halepense), lambsquarters (Chenopodium album), morningglory (Ipomoea coccinea), nutsedge, yellow (yellow nutsedge, Cyperus esculentus), pigweed (Amaranthus retroflexus), ragweed (common ragweed, Ambrosia elatior), soybean (Glycine max), barnyardgrass (Echinochloa crus-galli), oilseed rape (Brassica napus), pigweed, palmer (palmer pigweed, Amaranthus palmeri), waterhemp (common waterhemp, Amaranthus rudis), velvetleaf (Abutilon theophrasti), kochia (Kochia scoparia), surinam grass (Brachiaria decumbens), nightshade (eastern black nightshade, Solanum ptycanthum), wild poinsettia (Euphorbia heterophylla), windgrass (Apera spica-venti), and oat, wild (wild oat Avena fatua), were planted into a blend of loam soil and sand or a silt loam soil and treated preemergence with test chemicals formulated in a non-phytotoxic solvent mixture which included a surfactant.
# (§2) At the same time, plants selected from these crop and weed species and also chickweed (common chickweed, Stellaria media), buckwheat, wild (wild buckwheat, Polygonum convolvulus), wild mustard (Sinapis arvensis), field poppy (Papaver rhoeas), field violet (Viola arvensis), geranium, cutleaf (cutleaf geranium, Geranium dissectum), Canada thistle (Cirsium arvense), and speedwell (bird's-eye speedwell, Veronica persica), were planted in pots containing Sunshine Redi-Earth® planting medium comprising spaghnum peat moss, vermiculite, starter nutrients and dolomitic limestone and treated with postemergence applications of test chemicals formulated in the same manner. Plants ranged in height from 2 to 18 cm (1- to 4-leaf stage) for postemergence treatments. Treated plants and controls were maintained in a greenhouse for 13 to 15 d, after which time all species were compared to controls and visually evaluated. Plant response ratings, summarized in Table C, are based on a scale of 0 to 100 where 0 is no effect and 100 is complete control. A dash (-) response means no test result.
# [2] = test system: oilseed rape (Brassica napus); conditions: for Oilseed Rape plant response rating: scale 0 to 100 (0 no effect, 100 complete control)
# Source text: as §1, §2
# [3] = test system: galium (catchweed bedstraw, Galium aparine); conditions: for Galium plant response rating: scale 0 to 100 (0 no effect, 100 complete control)
# Source text: as §1, §2
# soybean (Glycine max) = conditions: for Soybean plant response rating: scale 0 to 100 (0 no effect, 100 complete control)
# Source text: as §1, §2
# corn (Zea mays) = conditions: for Corn plant response rating: scale 0 to 100 (0 no effect, 100 complete control)
# Source text: as §1, §2
# [4] = test system: crabgrass, large (large crabgrass, Digitaria sanguinalis); conditions: for Crabgrass, Large plant response rating: scale 0 to 100 (0 no effect, 100 complete control)
# Source text: as §1, §2
# kochia (Kochia scoparia) = conditions: for Kochia plant response rating: scale 0 to 100 (0 no effect, 100 complete control)
# Source text: as §1, §2
# [5] = test system: foxtail, giant (giant foxtail, Setaria faberii); conditions: for Foxtail, Giant plant response rating: scale 0 to 100 (0 no effect, 100 complete control)
# Source text: as §1, §2
SMILES,"Plant response rating, Waterhemp ([1]; 31 g ai/ha, scale 0 to 100)",Waterhemp plant response rating ([1]; 125 g ai/ha),"Plant response rating, Oilseed Rape ([2]; 31 g ai/ha, scale 0 to 100)",Oilseed Rape plant response rating ([2]; 62 g ai/ha),Oilseed Rape plant response rating ([2]; 125 g ai/ha),"Plant response rating, Galium ([3]; 31 g ai/ha, scale 0 to 100)",Galium plant response rating ([3]; 62 g ai/ha),Galium plant response rating ([3]; 125 g ai/ha),"Plant response rating, Soybean (soybean (Glycine max); 31 g ai/ha, scale 0 to 100)",Soybean plant response rating (soybean (Glycine max); 62 g ai/ha),Soybean plant response rating (soybean (Glycine max); 125 g ai/ha),"Plant response rating, Corn (corn (Zea mays); 31 g ai/ha, scale 0 to 100)",Corn plant response rating (corn (Zea mays); 62 g ai/ha),Corn plant response rating (corn (Zea mays); 125 g ai/ha),"Plant response rating, Crabgrass, Large ([4]; 31 g ai/ha, scale 0 to 100)","Crabgrass, Large plant response rating ([4]; 62 g ai/ha)","Crabgrass, Large plant response rating ([4]; 125 g ai/ha)","Plant response rating, Kochia (kochia (Kochia scoparia); 31 g ai/ha, scale 0 to 100)",Kochia plant response rating (kochia (Kochia scoparia); 62 g ai/ha),Kochia plant response rating (kochia (Kochia scoparia); 125 g ai/ha),also measured
O=C(OCC(F)(F)F)c1c(Br)cccc1Oc1ncc(Cl)cn1 [Compound 35],80,95,30,50,65,35,55,60,25,35,35,10,20,20,10,15,10,40,60,90,"Plant response rating, Waterhemp ([1]; 16 g ai/ha, scale 0 to 100): 65; Waterhemp plant response rating ([1]; 62 g ai/ha): 90; Plant response rating, Oilseed Rape ([2]; 16 g ai/ha, scale 0 to 100): 20; Plant response rating, Galium ([3]; 16 g ai/ha, scale 0 to 100): 35; Plant response rating, Soybean (soybean (Glycine max); 16 g ai/ha, scale 0 to 100): 25; Plant response rating, Corn (corn (Zea mays); 16 g ai/ha, scale 0 to 100): 5; Plant response rating, Crabgrass, Large ([4]; 16 g ai/ha, scale 0 to 100): 10; Plant response rating, Kochia (kochia (Kochia scoparia); 16 g ai/ha, scale 0 to 100): 5; Plant response rating, Foxtail, Giant ([5]; 16 g ai/ha, scale 0 to 100): 5; Plant response rating, Foxtail, Giant ([5]; 31 g ai/ha, scale 0 to 100): 10; Foxtail, Giant plant response rating ([5]; 62 g ai/ha): 10; Foxtail, Giant plant response rating ([5]; 125 g ai/ha): 20"
O=C(CCC(F)(F)C(F)(F)F)c1c(Br)cccc1Oc1ncc(Cl)cn1 [Compound 110],90,95,60,85,95,75,75,90,40,50,35,20,20,15,20,25,60,100,100,100,"Plant response rating, Waterhemp ([1]; 16 g ai/ha, scale of 0 to 100): 85; Plant response rating, Oilseed Rape ([2]; 16 g ai/ha, scale of 0 to 100): 60; Plant response rating, Galium ([3]; 16 g ai/ha, scale of 0 to 100): 60; Plant response rating, Soybean (soybean (Glycine max); 16 g ai/ha, scale of 0 to 100): 40; Plant response rating, Corn (corn (Zea mays); 16 g ai/ha, scale of 0 to 100): 10; Plant response rating, Crabgrass, Large ([4]; 16 g ai/ha, scale of 0 to 100): 10; Plant response rating, Kochia (kochia (Kochia scoparia); 16 g ai/ha, scale of 0 to 100): 95; Plant response rating, Foxtail, Giant ([5]; 16 g ai/ha, scale of 0 to 100): 10; Plant response rating, Foxtail, Giant ([5]; 31 g ai/ha, scale 0 to 100): 10; Foxtail, Giant plant response rating ([5]; 62 g ai/ha): 25; Foxtail, Giant plant response rating ([5]; 125 g ai/ha): 25"
FC(F)(F)CCCCc1c(Cl)cccc1Oc1ncc(Cl)cn1 [Compound 137],60,75,95,90,100,70,75,85,30,45,40,15,15,25,20,40,70,90,98,98,"Plant response rating, Waterhemp ([1]; 16 g ai/ha, scale of 0 to 100): 40; Plant response rating, Oilseed Rape ([2]; 16 g ai/ha, scale of 0 to 100): 90; Plant response rating, Galium ([3]; 16 g ai/ha, scale of 0 to 100): 55; Plant response rating, Soybean (soybean (Glycine max); 16 g ai/ha, scale of 0 to 100): 20; Plant response rating, Corn (corn (Zea mays); 16 g ai/ha, scale of 0 to 100): 10; Plant response rating, Crabgrass, Large ([4]; 16 g ai/ha, scale of 0 to 100): 10; Plant response rating, Kochia (kochia (Kochia scoparia); 16 g ai/ha, scale of 0 to 100): 85; Plant response rating, Foxtail, Giant ([5]; 16 g ai/ha, scale of 0 to 100): 20; Plant response rating, Foxtail, Giant ([5]; 31 g ai/ha, scale 0 to 100): 20; Foxtail, Giant plant response rating ([5]; 62 g ai/ha): 40; Foxtail, Giant plant response rating ([5]; 125 g ai/ha): 35"

# From US11053204B2, “Pyrimidinyloxy benzene derivatives as herbicides” (FMC Corporation, priority 2015, dated 2021)
